Test results taken from patent publication US20100234362A1, “USE OF DIAZOXIDE FOR SUPPRESSING THE PLASMA INSULIN LEVEL IN A MAMMAL” (priority 2007, published 2010).
Where two headings read alike, the source gives them in different places.

Legend:
[1] = literature clinical trials; cited from earlier work
[2] = 8-week weight-loss diet, hyperinsulinaemic obese subjects; cited from earlier work
[3] = for Weight: 14 obese men after 6 months oral Diazoxide (mean 600±54 mg/day), mean ± SE, baseline 115.1 ± 3.4; for Waist circumference: baseline 116.9 ± 1.4
Method: All subjects received were explained the physiological principle of this study. They also received dietary advice to reduce caloric intake to the calculated basal requirements for ideal body weight (based on the Harrison-Bennedict equation) and the instruction to increase walking exercise to at least 30 minutes a day. All subjects were allowed to do more physical exercise; the amount of daily physical exercise was not recorded. All subjects were instructed how to perform home glucose measurements (HGM). Blood samples were taken in the fasting state, (a) 2 hours after breakfast, just before lunch, (b) 2 hours after lunch, just before dinner, (c) 2 hours after dinner, at bedtime, and (d) at 3 am.
Baseline measurements included body weight, body height, abdominal circumference, body composition by total body dual energy X-ray absorptiometry (DEXA), supine and upright blood pressure, HGM for two days and the assessment of serum glucose levels and serum insulin levels in response to a standarised test meal. […] Venous blood samples were taen through a venous line inserted into the forearm at −30, 0, 30, 45, 60, 90, 120, 180, 240 and 300 minutes.
After completion of all baseline measurements, the subjects started Diazoxide 50 mg (three times a day) which was taken before each meal. Subsequently, the outpatient clinic was visited every month where the following data were recorded: body weight, abdominal circumference, supine and upright blood pressure, the results of a two-day, 8-point HGM performed in the week preceding the visit and adverse effects. Every visit, the daily Diazoxide dose was increased by 3×50 mg until a maximum of 300 mg (three times a day) was reached or until adverse side effects occurred. The Diazoxide dose was not increased if clinically relevant edema persisted for ore than a month, if upright systolic blood pressure was <110 mm Hg, if upright diastolic blood pressure was <70 mm Hg, or if fasting home glucose level was >7 nmol/l, or non-fasting home glucose level was >11 nmol/l.
After six months of treatment, all measurements were repeated including the meal test. Diazoxide was taken at t−30. Blood samples taken during the meal test at t120 were also analysed for Diazoxide levels. […] The results of total body DEXA were expressed as kg lean body mass, fat mass and bone mass. Normal values for serum glucose levels and serum insuli levels during the test meal were obtained by performing this test in ten healthy, age-matched, non-obese men (BMI about 20 to about 25 kg/m^2).
All data are shown as mean values±standard error (SE). The paired t-test was used to analyse the response to Diazoxide treatment, employing the Bonferoni correction for multiple comparisons. A p-value of less than 0.05 was considered to be statistically significant.

[4] = Plasma Diazoxide level by HPLC/UV; assay type: in vivo; conditions: male, human, at six months, mean daily dose 600±54 mg (5.7±0.5 mg/kg), oral, three times a day, read-out: plasma DZX level
Excerpt: Diazoxide was taken at t−30.

[5] = maximal 200 mg/day divided in three dosages, eight weeks, 24 hyperinsulinemic patients; placebo 5.0 kg; cited from earlier work
[6] = tested on: blood glucose and insulin levels; conditions: about 0.4 to about 0.8 mg/kg body weight before each meal; subjects with postprandial hyperglycemia and reactive hypoglycemia; cited from earlier work
plasma insulin levels = conditions: one week, cited from earlier work
[7] = tested on: plasma insulin and glucose levels; assay: Standardised 500 kCal meal test before and after six months of Diazoxide: plasma glucose and insulin; assay type: in vivo, human; set-up: Whole Body Insulin Sensitivity: unit not given here
[8] = cited from earlier work
insulin secretion = conditions: at comparable dosages; cited from earlier work
[9] = DEXA, 6 months vs baseline, P<0.001
[10] = oral 300 mg per day divided in three dosages
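For change of LDL cholesterol in this document: obese men given oral Diazoxide before meals with dose raised monthly up to 300 mg three times daily, plus diet and walking advice, measured at baseline and after six months.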
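For change of systolic blood pressure in this document: obese men given oral Diazoxide before meals with dose raised monthly up to 300 mg three times daily, plus diet and walking advice, measured at baseline and after six months.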
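For decrease of diastolic blood pressure in this document: obese men given oral Diazoxide before meals with dose raised monthly up to 300 mg three times daily, plus diet and walking advice, measured at baseline and after six months.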
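For increase of adiponectin levels in this document: obese men given oral Diazoxide before meals with dose raised monthly up to 300 mg three times daily, plus diet and walking advice, measured at baseline and after six months.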

Q: For Cc1c(C(=O)NN2CCCCC2)nn(-c2ccc(Cl)cc2Cl)c1-c1ccc(Cl)cc1 [Rimonabant], which “(placebo-subtracted) net weight loss” value [1] is on record?
A: about 6 kg

Q: For CC(C)CC(N(C)C)C1(c2ccc(Cl)cc2)CCC1 (stereo not shown) [Sibutramine], which “(placebo-subtracted) net weight loss” value [1] is on record?
A: about 5 kg

Q: Which results are given for CC1=NS(=O)(=O)c2cc(Cl)ccc2N1 [Diazoxide, 7-chloro-3-methyl-4H-1,2,4-benzothiadiazine 1,1-dioxide]?
A: effect on weight loss [2]: No effect; change of LDL cholesterol ([3]; 6 months vs baseline): did not change significantly; change of systolic blood pressure ([3]; 6 months vs baseline): did not change; decrease of diastolic blood pressure ([3]; 6 months vs baseline, 95% CI: 6.5-15.4 mm Hg, P<0.001): 10.9±2.3 mm Hg; increase of adiponectin levels ([3]; 6 months vs baseline, P<0.001): 100±17%; increase of HbAlc ([3]; 6 months vs baseline, P<0.02): 0.5 % points; main dose limiting events ([3]; 14 men, six months, 300 to 900 mg/day, other adverse effects not observed): Hyperglycaemia (n=4) and edema (n=8); Weight ([3]; P<0.001): 105.7 ± 3.5 kg; Weight ([3]; P<0.001, listed as DZX): 105.7 ± 3.8 kg; Bone Mass ([3]; DEXA after 6 months Diazoxide, baseline 3.35 ± 0.14, NS): 3.47 ± 0.11 kg; Fat Mass ([3]; DEXA after 6 months Diazoxide, baseline 40.1 ± 1.8, P<0.001): 30.7 ± 2.1 kg; Soft Tissue LBM ([3]; DEXA after 6 months Diazoxide, baseline 70.2 ± 2.0, NS): 70.6 ± 2.4 kg; change in soft tissue lean body mass or bone mass ([3]; DEXA, 6 months vs baseline): without a concomitant change; change of total body fat mass [3, 9]: −23.3%; decrease of total body fat mass [3, 9]: 9.5 ± 1.9 kg; plasma insulin level at which substantial loss of body fat (decrease of 10 kg or more) occurred ([3]; FIG. 5, fasting insulin at 6 months, mean DZX dose in this subgroup 630±56 mg, about 30 pmol/L): below 4.5 mU/L; Urate ([3]; after 6 months Diazoxide, baseline 0.37 ± 0.01, P<0.02): 0.32 ± 0.02 mmol/L; HDL-Cholesterol ([3]; after 6 months Diazoxide, baseline 1.12 ± 0.07, P<0.05): 1.25 ± 0.09 mmol/L; Triglycerides ([3]; after 6 months Diazoxide, baseline 2.17 ± 0.26, P<0.001): 1.08 ± 0.13 mmol/L; LDL-Cholesterol ([3]; after 6 months Diazoxide, baseline 3.19 ± 0.32, NS): 2.97 ± 0.23 mmol/L; HbA1c ([3]; after 6 months Diazoxide, baseline 5.4 ± 0.1, P<0.02): 5.9 ± 0.2%; Adiponectin ([3]; after 6 months Diazoxide, baseline 6.4 ± 0.5, P<0.001): 12.5 ± 1.2 mg/L; BMI ([3]; after 6 months Diazoxide, baseline 33.8 ± 0.5, P<0.001): 31.0 ± 0.7 kg/m^2; Diastolic BP ([3]; after 6 months Diazoxide, baseline 85.8 ± 2.1, P<0.001): 74.9 ± 2.1 mmHg; Waist circumference ([3]; after 6 months Diazoxide, P<0.001): 107.7 ± 2.2 cm; Waist circumference ([3]; after 6 months Diazoxide, P<0.001, listed as DZX): 107.7±2.2 cm; Systolic BP ([3]; after 6 months Diazoxide, baseline 128.8 ± 3.2, NS): 128.8 ± 3.0 mmHg; Glucosuria in fasting morning urine samples ([3]; during six months of treatment): not observed; discontinuation because of side-effects ([3]; of eighteen obese men included): two men stopped because of side-effects (rash and edema, respectively); mean weight loss ([3]; subgroup with weight loss between 5 and 10% (4/14 men)): 6.7±0.5%; mean weight loss ([3]; subgroup with weight loss less than 5% (5/14 men)): 3.1±0.8%; mean weight loss ([3]; subgroup with weight loss more than 10% (5/14 men)): 15.7±0.7%; concentration at 150 min [4]: 50000 ± 5800 ng/mL; weight loss [5]: 9.8 kg; effect on blood glucose and insulin levels [6]: effective to normalize blood glucose and insulin levels; effect on fasting or postprandial glucose levels (plasma insulin levels; [10]): without affecting fasting or postprandial glucose levels; reduction of plasma insulin levels (plasma insulin levels; [10]): about 20%; effect on plasma glucose and insulin levels (plasma insulin levels; oral 150 and 225 mg per day divided in three dosages): no significant effect; reduction of AUCIns ([7]; 6 months vs baseline, P<0.001): 63%; reduction of fasting insulin levels ([7]; 6 months vs baseline, P<0.001): 65%; reduction of post-meal insulin peak levels ([7]; 6 months vs baseline, P<0.001): 62%; increase of fasting glucose ([7]; 6 months vs baseline, P<0.01): 0.8 ± 0.3 mmol/L; rise of AUCGluc ([7]; 6 months vs baseline, P<0.02): 29%; increase of peak glucose ([7]; 6 months vs baseline, P=0.06): 1.4 ± 0.7 mmol/L; increase of whole body insulin sensitivity ([7]; 6 months vs baseline, printed 95% CI: 60-145%, P<0.001): 209%; Whole Body Insulin Sensitivity ([7]; after 6 months Diazoxide, baseline 3.0 ± 0.3, P<0.001): 8.8 ± 1.2; Fasting glucose ([7]; after 6 months Diazoxide, baseline 5.5 ± 0.2, P<0.01): 6.3 ± 0.3 mmol/L; Fasting Insulin ([7]; after 6 months Diazoxide, baseline 18.0 ± 2.3, P<0.001): 5.6 ± 0.7 mU/L; Peak glucose ([7]; meal test after 6 months Diazoxide, baseline 8.4 ± 0.3, NS): 9.8 ± 0.7 mmol/L; AUC insulin ([7]; meal test after 6 months Diazoxide, baseline 16.6 ± 2.1, P<0.001): 5.4 ± 0.4 mU · 10^−3/L · min; Peak Insulin ([7]; meal test after 6 months Diazoxide, baseline 124 ± 17, P<0.001): 35 ± 4 mU/L; plasma level ([8]; after six months, mean dosage about 585 mg/day): about 49 mg/l; body weight ([8]; after six months, mean dosage about 585 mg/day, from about 114 kg): about 103 kg; tolerability of higher dosages ([8]; dose raised monthly from 150 to ultimately 900 mg/day): generally not tolerated due to side effects, in particular hyperglycaemia and edema

Q: Which “inhibiting insulin secretion compared with Diazoxide” value (insulin secretion) does the source give for CNC(=NS(=O)(=O)c1ccc(Cl)cc1)N1C[C@H](c2ccccc2)C(c2ccc(Cl)cc2)=N1 [Compound A, (4S)-3-(4-chlorophenyl)-N′-[(4-chlorophenyl)sulfonyl]-N-methyl-4-phenyl-4,5-dihydro-1-H-pyrazole-1-carboximidamide] here?
A: more effective than Diazoxide

Q: For CCCCCCCCCCC[C@@H](C[C@@H]1OC(=O)[C@H]1CCCCCC)OC(=O)[C@H](CC(C)C)NC=O [Orlistat], which “(placebo-subtracted) net weight loss” value [1] is on record?
A: ~3 kg
